The test system of series [1] is Phospho-KIT (Y703) in M07e cells. Description: Phospho-KIT (Y703) cellular assay in M07e cells. Type of series: cell-based. The note with it: M-07e, read-out: M07e Cell IC50. In a few lines:
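Serum-starved M07e cells preincubated 50 min at 37° C with 11-point half-log compound titration, then stimulated 10 min with SCF at 90.9 ng/mL final. Fixed, permeabilized cells stained for phospho-KIT Y703 and read by flow cytometry (live-gated geometric mean); IC50 by 4-parameter fit normalized to DMSO and positive control.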

The test system of series [2] is cynomolgus monkey hepatocytes. In words: Bioactivation assessment in monkey hepatocytes. To be noted: 5 μM, 4 hours. Type of series: in vitro ADME. The method, then: (§1) Bioactivation Assessment Procedure
(§2) Pooled male Sprague Dawley rat (BioIVT), male beagle dog (BioIVT), male cynomolgus monkey (BioIVT), and a 50-donor pool of cryopreserved human hepatocytes (BioIVT) was thawed in pre-warmed 37° C. InVitroGro™ HT media (BioIVT), centrifuged, and resuspended in the InVitroGro™ HI media (BioIVT). The number of viable cells was determined by the Trypan blue exclusion method. The cells were diluted to a concentration of two million viable cells per milliliter (viability >80%) and seeded into round-bottom 96-well plates. The test articles were dissolved in DMSO and further diluted in 50% CH3CN and InVitroGro™ HI media with final concentrations of 0.05% DMSO and 0.5% CH3CN in the incubation mixture. Incubation was performed at a final concentration of one million cells per milliliter and 5 μM test compounds with continuous shaking at 1100 rpm in a 37° C., 5/95% CO2/air incubator with 100% relative humidity. After 4 hours, the samples were quenched by addition of 3 volumes of CH3CN, vortexed for 15 minutes, and centrifuged at 4200 rpm for 15 minutes at 10° C. (Sorvall Legend XTR centrifuge, Thermo Scientific, Langenselbold, Germany). 80 μL of the resulting supernatant was transferred into a new plate and mixed with 160 μL water followed by liquid chromatography-high resolution mass spectrometry (LC-HRMS) analysis.
(§3) Structural assignments of metabolites were determined through mass spectral analysis. The level of bioactivation was estimated based on the relative peak area of bioactivation products to all identified metabolites. The following equation was used: […]
(§4) Bioactivation products included glutathione conjugates, imine methides, quinones, diols, and other relevant metabolites.

Series [3] relates to human hepatocytes. Description: Bioactivation assessment in human hepatocytes. To be noted: 5 μM, 4 hours. The series is classed as in vitro ADME. On the procedure: as §1, §2, §3, §4
Setting [4] is: phospho-KIT (Y703), SCF-stimulated M07e cells.

The text below walks through data of patent publication US20250145606A1 (Arcus Biosciences, Inc., priority 2023, published 2025).

Where two headings read alike, the source gives them in different places. Marks after values point to notes of the source that are not given here.

As usually defined, the IC50 is the concentration that gives 50% inhibition. For the molecule `Cc1ncc(C(=O)Nc2cc(C(=O)Nc3ccc(CC(F)(F)F)cn3)c(F)cc2C)s1` [Example 1, N-[4-Fluoro-2-methyl-5-[[5-(2,2,2-trifluoroethyl)pyridin-2-yl]carbamoyl]phenyl]-2-methyl-1,3-thiazole-5-carboxamide], the IC50 in series [1] is below 0.1 µM. For the same molecule, the “Percent of total metabolism via bioactivation, Monkey hepatocytes” value (“Percent … Monkey hepatocytes” below) in series [2] came to 4%. In addition, in series [3], the “Percent of total metabolism via bioactivation, Human hepatocytes” value (from here on “Percent … Human hepatocytes”) is given as below 0.1%^b.

For `Cc1ncc(C(=O)Nc2cc(C(=O)Nc3ccc(OC4CC4)cn3)c(F)cc2C)s1` [Example 2, N-[5-[(5-Cyclopropyloxypyridin-2-yl)carbamoyl]-4-fluoro-2-methylphenyl]-2-methyl-1,3-thiazole-5-carboxamide], the IC50 in series [1] (setting [4]) is below 0.1 µM. As for `Cc1ncc(C(=O)Nc2cc(C(=O)Nc3ccc(C4CC4)cn3)c(F)cc2C)s1` [Example 3, N-[5-[(5-Cyclopropylpyridin-2-yl)carbamoyl]-4-fluoro-2-methylphenyl]-2-methyl-1,3-thiazole-5-carboxamide], the IC50 in series [1] is below 0.1 µM. Moreover, the “Percent … Monkey hepatocytes” value in series [2] worked out at 2%. Also, the “Percent … Human hepatocytes” value in series [3] is below 0.1%. `Cc1ncc(C(=O)Nc2cc(C(=O)Nc3cnc(OCC(C)(F)F)cn3)c(F)cc2C)s1` [Example 4, N-[5-[[5-(2,2-Difluoropropoxy)pyrazin-2-yl]carbamoyl]-4-fluoro-2-methylphenyl]-2-methyl-1,3-thiazole-5-carboxamide]: in series [1] (setting [4]), the half-inhibitory concentration (IC50) was below 0.1 µM. As for `Cc1ncc(C(=O)Nc2cc(C(=O)Nc3ccc(CC4CC4)cn3)c(F)cc2C)s1` [Example 5, N-[5-[[5-(Cyclopropylmethyl)pyridin-2-yl]carbamoyl]-4-fluoro-2-methylphenyl]-2-methyl-1,3-thiazole-5-carboxamide], the IC50 in series [1] is below 0.1 µM. Besides, the “Percent … Monkey hepatocytes” value in series [2] is given as below 1%. The “Percent … Human hepatocytes” value in series [3] was below 1%.

With `Cc1ncc(C(=O)Nc2cc(C(=O)Nc3ccc(OC(F)F)cn3)c(F)cc2C)s1` [Example 38, N-[5-[[5-(difluoromethoxy)pyridin-2-yl]carbamoyl]-4-fluoro-2-methylphenyl]-2-methyl-1,3-thiazole-5-carboxamide], in series [1] (Phospho-KIT (Y703), M07e cells), the IC50 was below 0.1 µM. In the case of `Cc1ncc(C(=O)Nc2cc(C(=O)Nc3ccc(CC(F)(F)F)cn3)c(F)cc2Cl)s1` [Example 46, N-[2-chloro-4-fluoro-5-[[5-(2,2,2-trifluoroethyl)pyridin-2-yl]carbamoyl]phenyl]-2-methyl-1,3-thiazole-5-carboxamide], the IC50 in series [1] (Phospho-KIT (Y703), M07e cells) is below 0.1 µM.
